Consider 13 molecules from US4177350A, “Imidazole ethyl oxyalkoxy derivatives and thio analogues thereof” (Siegfried Aktiengesellschaft, priority 1977, dated 1979).

One data set relates to Staphylococcus aureus haemolyticus. Nature of the data set: minimum inhibitory concentration, gradient plate method, Staphylococcus aureus haemolyticus. Format: cell-based. The note with it: 72 h, gradient 0-100 μg/ml, 10% aqueous dimethyl formamide, evaluated three days after inoculation, read-out: Minimum Inhibitory Concentration, Bacteria, St. The source says: (§1) Test evaluation was made three days after inoculation.
With `Clc1ccc(C(Cn2ccnc2)OCSc2ccc(Cl)c(Cl)c2)c(Cl)c1` (stereo not drawn) [Example 15, 1-β-(3,4-dichlorophenylthiomethoxy-2,4-dichlorophenethyl)-imidazole nitrate], the MIC was less than 10 µg/mL.

For the molecule `Cc1cc(SCOC(Cn2ccnc2)c2ccc(Cl)cc2Cl)ccc1Br` (stereo not drawn) [Example 16, 1-β-(4-bromo-3-methylphenylthiomethoxy-2,4-dichlorophenethyl)-imidazole nitrate], the MIC is less than 10 µg/mL.

As to `Clc1ccc(OCCOCCOC(Cn2ccnc2)c2ccc(Cl)cc2Cl)cc1` (stereo not drawn) [Example 17, 1-{β-[2-(p-chlorophenoxyethoxy)-ethoxy-2,4-dichlorophenethyl]}-imidazole nitrate], the MIC is less than 10 µg/mL.

For `OCCSC(Cn1ccnc1)c1ccc(Cl)cc1Cl` (stereo not drawn) [Example 18, 1-β-(2,4-dichlorophenethyl-β'-hydroxyethylthio)-imidazole nitrate], the MIC is 50 µg/mL.

For the molecule `CSCOC(Cn1ccnc1)c1ccc(Cc2ccc(Cl)cc2)cc1` (stereo not drawn) [Example 19, 1-[β-methylthiomethoxy-4-(4'-chlorobenzyl)-phenethyl]-imidazole nitrate], the MIC is 10 µg/mL.

As to `Clc1ccc(C(Cn2ccnc2)OCCCOc2ccccc2)c(Cl)c1` (stereo not drawn) [Example 20, 1-β-(3-phenoxypropyloxy-2,4-dichlorophenethyl)-imidazole methane sulfonate], the MIC is less than 10 µg/mL.

As to `Clc1ccc(SCCSC(Cn2ccnc2)c2ccc(Cl)cc2Cl)cc1` (stereo not drawn) [Example 21, 1-β-(4-chlorophenylthioethylthio-2,4-dichlorophenethyl)-imidazole], the MIC is less than 10 µg/mL.

Regarding `Clc1ccc(C(Cn2ccnc2)OCSC2CCCCC2)c(Cl)c1` (stereo not drawn) [Example 22, 1-[β-(cyclohexylthiomethoxy-2,4-dichlorophenethyl)]-imidazole nitrate], the MIC is less than 10 µg/mL.

Regarding `Clc1ccc(CSCOC(Cn2ccnc2)c2ccc(Cl)cc2Cl)cc1` (stereo not drawn) [Example 23, 1-β-(p-chlorobenzylthiomethoxy-2,4-dichlorophenethyl)-imidazole nitrate], the MIC was less than 10 µg/mL.

On to `CC(C(OCSc1ccc(Cl)cc1)c1ccc(Cl)cc1Cl)n1ccnc1` (stereo not drawn) [Example 25, 1-[β-(p-chlorophenylthiomethoxy)-2,4-dichlorophenethyl-α-methyl]-imidazole nitrate], for which the MIC is less than 10 µg/mL.

Take `Clc1ccc(SCCSC(Cn2ccnc2)c2ccc(Cl)cc2Cl)nc1` (stereo not drawn) [Example 29, 1-{β-[(5'-chloropyridyl-2'-thio-2-ethylthio)-2,4-dichlorophenethyl]}-imidazole]: the MIC was less than 10 µg/mL.

For a further data set, the system named is Streptococcus faecalis. Nature of the data set: minimum inhibitory concentration, gradient plate method, Streptococcus faecalis. The note with it: Enterococcus faecalis, 72 h, gradient 0-100 μg/ml, 10% aqueous dimethyl formamide, evaluated three days after inoculation, read-out: Minimum Inhibitory Concentration, Bacteria, Str. It is filed as cell-based.
Text: as §1
Take `Clc1ccc(C(Cn2ccnc2)OCSc2ccc(Cl)c(Cl)c2)c(Cl)c1` (stereo not drawn) [Example 15, 1-β-(3,4-dichlorophenylthiomethoxy-2,4-dichlorophenethyl)-imidazole nitrate]: the MIC is less than 10 µg/mL.

For `Cc1cc(SCOC(Cn2ccnc2)c2ccc(Cl)cc2Cl)ccc1Br` (stereo not drawn) [Example 16, 1-β-(4-bromo-3-methylphenylthiomethoxy-2,4-dichlorophenethyl)-imidazole nitrate], the MIC is 10 µg/mL.

For the molecule `Clc1ccc(OCCOCCOC(Cn2ccnc2)c2ccc(Cl)cc2Cl)cc1` (stereo not drawn) [Example 17, 1-{β-[2-(p-chlorophenoxyethoxy)-ethoxy-2,4-dichlorophenethyl]}-imidazole nitrate], the MIC turned out to be 10 µg/mL.

As for `OCCSC(Cn1ccnc1)c1ccc(Cl)cc1Cl` (stereo not drawn) [Example 18, 1-β-(2,4-dichlorophenethyl-β'-hydroxyethylthio)-imidazole nitrate], the MIC was found to be 40 µg/mL.

On to `CSCOC(Cn1ccnc1)c1ccc(Cc2ccc(Cl)cc2)cc1` (stereo not drawn) [Example 19, 1-[β-methylthiomethoxy-4-(4'-chlorobenzyl)-phenethyl]-imidazole nitrate], for which the MIC came to 25 µg/mL.

Turning to `Clc1ccc(C(Cn2ccnc2)OCCCOc2ccccc2)c(Cl)c1` (stereo not drawn) [Example 20, 1-β-(3-phenoxypropyloxy-2,4-dichlorophenethyl)-imidazole methane sulfonate], the MIC is less than 10 µg/mL.

`Clc1ccc(C(Cn2ccnc2)OCSC2CCCCC2)c(Cl)c1` (stereo not drawn) [Example 22, 1-[β-(cyclohexylthiomethoxy-2,4-dichlorophenethyl)]-imidazole nitrate]: the MIC was less than 10 µg/mL.

Regarding `CC(C(OCSc1ccc(Cl)cc1)c1ccc(Cl)cc1Cl)n1ccnc1` (stereo not drawn) [Example 25, 1-[β-(p-chlorophenylthiomethoxy)-2,4-dichlorophenethyl-α-methyl]-imidazole nitrate], the MIC is less than 10 µg/mL.

The subject of the next data set is Trichophyton mentagrophytes. Nature of the data set: minimum inhibitory concentration, gradient plate method, Trichophyton mentagrophytes. Format: cell-based. The note with it: 72 h, gradient 0-100 μg/ml, 10% aqueous dimethyl formamide, evaluated three days after inoculation, read-out: Minimum Inhibitory Concentration, Fungi, Tri.
Text: as §1
`COCOC(Cn1ccnc1)c1ccc(Cl)cc1Cl` (stereo not drawn) [Example 1, 1-β-(methoxy-methoxy-2,4-dichlorophenethyl)-imidazole nitrate]: the MIC is less than 10 µg/mL.

For the molecule `Clc1ccc(C(Cn2ccnc2)OCSc2ccc(Cl)c(Cl)c2)c(Cl)c1` (stereo not drawn) [Example 15, 1-β-(3,4-dichlorophenylthiomethoxy-2,4-dichlorophenethyl)-imidazole nitrate], the MIC is less than 10 µg/mL.

As for `Cc1cc(SCOC(Cn2ccnc2)c2ccc(Cl)cc2Cl)ccc1Br` (stereo not drawn) [Example 16, 1-β-(4-bromo-3-methylphenylthiomethoxy-2,4-dichlorophenethyl)-imidazole nitrate], the MIC is less than 10 µg/mL.

In the case of `Clc1ccc(OCCOCCOC(Cn2ccnc2)c2ccc(Cl)cc2Cl)cc1` (stereo not drawn) [Example 17, 1-{β-[2-(p-chlorophenoxyethoxy)-ethoxy-2,4-dichlorophenethyl]}-imidazole nitrate], the MIC is less than 10 µg/mL.

Consider `OCCSC(Cn1ccnc1)c1ccc(Cl)cc1Cl` (stereo not drawn) [Example 18, 1-β-(2,4-dichlorophenethyl-β'-hydroxyethylthio)-imidazole nitrate], for which the MIC came out at 30 µg/mL.

As to `CSCOC(Cn1ccnc1)c1ccc(Cc2ccc(Cl)cc2)cc1` (stereo not drawn) [Example 19, 1-[β-methylthiomethoxy-4-(4'-chlorobenzyl)-phenethyl]-imidazole nitrate], the MIC was less than 10 µg/mL.

For `Clc1ccc(C(Cn2ccnc2)OCCCOc2ccccc2)c(Cl)c1` (stereo not drawn) [Example 20, 1-β-(3-phenoxypropyloxy-2,4-dichlorophenethyl)-imidazole methane sulfonate], the MIC is less than 10 µg/mL.

For the molecule `Clc1ccc(SCCSC(Cn2ccnc2)c2ccc(Cl)cc2Cl)cc1` (stereo not drawn) [Example 21, 1-β-(4-chlorophenylthioethylthio-2,4-dichlorophenethyl)-imidazole], the MIC is less than 10 µg/mL.

As for `Clc1ccc(C(Cn2ccnc2)OCSC2CCCCC2)c(Cl)c1` (stereo not drawn) [Example 22, 1-[β-(cyclohexylthiomethoxy-2,4-dichlorophenethyl)]-imidazole nitrate], the MIC was less than 10 µg/mL.

Regarding `Clc1ccc(CSCOC(Cn2ccnc2)c2ccc(Cl)cc2Cl)cc1` (stereo not drawn) [Example 23, 1-β-(p-chlorobenzylthiomethoxy-2,4-dichlorophenethyl)-imidazole nitrate], the MIC was less than 10 µg/mL.

On to `CC(C(OCSc1ccc(Cl)cc1)c1ccc(Cl)cc1Cl)n1ccnc1` (stereo not drawn) [Example 25, 1-[β-(p-chlorophenylthiomethoxy)-2,4-dichlorophenethyl-α-methyl]-imidazole nitrate], for which the MIC is less than 10 µg/mL.

Consider `Clc1ccc(SCCSC(Cn2ccnc2)c2ccc(Cl)cc2Cl)nc1` (stereo not drawn) [Example 29, 1-{β-[(5'-chloropyridyl-2'-thio-2-ethylthio)-2,4-dichlorophenethyl]}-imidazole], for which the MIC was less than 10 µg/mL.

The subject of the next data set is Aspergillus niger. The experiment in a line: minimum inhibitory concentration, gradient plate method, Aspergillus niger. It is filed as cell-based. The arrangement: key to partial resistancy, Fungi, Asp: partial resistancy observed.
Settings: not given
Text: as §1
`Clc1ccc(C(Cn2ccnc2)OCSc2ccc(Cl)c(Cl)c2)c(Cl)c1` (stereo not drawn) [Example 15, 1-β-(3,4-dichlorophenylthiomethoxy-2,4-dichlorophenethyl)-imidazole nitrate]: the “partial resistancy, Fungi, Asp” value was “r”.

For the molecule `CC(C(OCSc1ccc(Cl)cc1)c1ccc(Cl)cc1Cl)n1ccnc1` (stereo not drawn) [Example 25, 1-[β-(p-chlorophenylthiomethoxy)-2,4-dichlorophenethyl-α-methyl]-imidazole nitrate], the “partial resistancy, Fungi, Asp” value is reported as “r”.

The data set is the same for the next values; noted with them: 72 h, gradient 0-100 μg/ml, 10% aqueous dimethyl formamide, evaluated three days after inoculation, read-out: Minimum Inhibitory Concentration, Fungi, Asp.
Consider `COCOC(Cn1ccnc1)c1ccc(Cl)cc1Cl` (stereo not drawn) [Example 1, 1-β-(methoxy-methoxy-2,4-dichlorophenethyl)-imidazole nitrate], for which the MIC was less than 10 µg/mL.

Regarding `Cc1cc(SCOC(Cn2ccnc2)c2ccc(Cl)cc2Cl)ccc1Br` (stereo not drawn) [Example 16, 1-β-(4-bromo-3-methylphenylthiomethoxy-2,4-dichlorophenethyl)-imidazole nitrate], the MIC was less than 10 µg/mL.

As to `Clc1ccc(OCCOCCOC(Cn2ccnc2)c2ccc(Cl)cc2Cl)cc1` (stereo not drawn) [Example 17, 1-{β-[2-(p-chlorophenoxyethoxy)-ethoxy-2,4-dichlorophenethyl]}-imidazole nitrate], the MIC came to 10 µg/mL.

For `CSCOC(Cn1ccnc1)c1ccc(Cc2ccc(Cl)cc2)cc1` (stereo not drawn) [Example 19, 1-[β-methylthiomethoxy-4-(4'-chlorobenzyl)-phenethyl]-imidazole nitrate], the MIC came out at 10 µg/mL.

For the molecule `Clc1ccc(C(Cn2ccnc2)OCCCOc2ccccc2)c(Cl)c1` (stereo not drawn) [Example 20, 1-β-(3-phenoxypropyloxy-2,4-dichlorophenethyl)-imidazole methane sulfonate], the MIC is less than 10 µg/mL.

Consider `Clc1ccc(SCCSC(Cn2ccnc2)c2ccc(Cl)cc2Cl)cc1` (stereo not drawn) [Example 21, 1-β-(4-chlorophenylthioethylthio-2,4-dichlorophenethyl)-imidazole], for which the MIC was less than 10 µg/mL.

On to `Clc1ccc(C(Cn2ccnc2)OCSC2CCCCC2)c(Cl)c1` (stereo not drawn) [Example 22, 1-[β-(cyclohexylthiomethoxy-2,4-dichlorophenethyl)]-imidazole nitrate], for which the MIC is less than 10 µg/mL.

In the case of `Clc1ccc(CSCOC(Cn2ccnc2)c2ccc(Cl)cc2Cl)cc1` (stereo not drawn) [Example 23, 1-β-(p-chlorobenzylthiomethoxy-2,4-dichlorophenethyl)-imidazole nitrate], the MIC was less than 10 µg/mL.

As for `Clc1ccc(SCCSC(Cn2ccnc2)c2ccc(Cl)cc2Cl)nc1` (stereo not drawn) [Example 29, 1-{β-[(5'-chloropyridyl-2'-thio-2-ethylthio)-2,4-dichlorophenethyl]}-imidazole], the MIC is less than 10 µg/mL.

Tested on in the next data set: not listed separately
The experiment in a line: in vivo. To be noted: mouse, po.
Text: The results of these tests are summarized in the following Table I together with the oral toxicity values (LD50 per os; mice, values in mg per kg of body weight) determined in the conventional manner.
What is called LD50 is the dose at which mortality reaches 50%. Regarding `COCOC(Cn1ccnc1)c1ccc(Cl)cc1Cl` (stereo not drawn) [Example 1, 1-β-(methoxy-methoxy-2,4-dichlorophenethyl)-imidazole nitrate], the LD50 came to 540 mg/kg.

For `Clc1ccc(C(Cn2ccnc2)OCOc2ccc(-c3ccccc3)cc2)c(Cl)c1` (stereo not drawn) [Example 9, 1-β-(phenylphenoxymethoxy-2,4-dichlorophenethyl)-imidazole nitrate], the LD50 is approximately 3500 mg/kg.

The molecule `Clc1ccc(C(Cn2ccnc2)OCSc2ccc(Cl)c(Cl)c2)c(Cl)c1` (stereo not drawn) [Example 15, 1-β-(3,4-dichlorophenylthiomethoxy-2,4-dichlorophenethyl)-imidazole nitrate] displayed an LD50 of approximately 7500 mg/kg.

Turning to `Cc1cc(SCOC(Cn2ccnc2)c2ccc(Cl)cc2Cl)ccc1Br` (stereo not drawn) [Example 16, 1-β-(4-bromo-3-methylphenylthiomethoxy-2,4-dichlorophenethyl)-imidazole nitrate], the LD50 was more than 3000 mg/kg.

In the case of `Clc1ccc(OCCOCCOC(Cn2ccnc2)c2ccc(Cl)cc2Cl)cc1` (stereo not drawn) [Example 17, 1-{β-[2-(p-chlorophenoxyethoxy)-ethoxy-2,4-dichlorophenethyl]}-imidazole nitrate], the LD50 amounted to 2500 mg/kg.

Consider `OCCSC(Cn1ccnc1)c1ccc(Cl)cc1Cl` (stereo not drawn) [Example 18, 1-β-(2,4-dichlorophenethyl-β'-hydroxyethylthio)-imidazole nitrate], for which the LD50 came to 1300 mg/kg.

Molecule `CSCOC(Cn1ccnc1)c1ccc(Cc2ccc(Cl)cc2)cc1` (stereo not drawn) [Example 19, 1-[β-methylthiomethoxy-4-(4'-chlorobenzyl)-phenethyl]-imidazole nitrate] came in with an LD50 of 970 mg/kg.

In turn, `Clc1ccc(C(Cn2ccnc2)OCCCOc2ccccc2)c(Cl)c1` (stereo not drawn) [Example 20, 1-β-(3-phenoxypropyloxy-2,4-dichlorophenethyl)-imidazole methane sulfonate] had an LD50 of approximately 2400 mg/kg.

`Clc1ccc(SCCSC(Cn2ccnc2)c2ccc(Cl)cc2Cl)cc1` (stereo not drawn) [Example 21, 1-β-(4-chlorophenylthioethylthio-2,4-dichlorophenethyl)-imidazole] yielded an LD50 of more than 3000 mg/kg.

With `Clc1ccc(C(Cn2ccnc2)OCSC2CCCCC2)c(Cl)c1` (stereo not drawn) [Example 22, 1-[β-(cyclohexylthiomethoxy-2,4-dichlorophenethyl)]-imidazole nitrate], the 50% lethal dose (LD50) is more than 3000 mg/kg.

Molecule `Clc1ccc(CSCOC(Cn2ccnc2)c2ccc(Cl)cc2Cl)cc1` (stereo not drawn) [Example 23, 1-β-(p-chlorobenzylthiomethoxy-2,4-dichlorophenethyl)-imidazole nitrate] registered an LD50 of more than 2000 mg/kg.

Take `CC(C(OCSc1ccc(Cl)cc1)c1ccc(Cl)cc1Cl)n1ccnc1` (stereo not drawn) [Example 25, 1-[β-(p-chlorophenylthiomethoxy)-2,4-dichlorophenethyl-α-methyl]-imidazole nitrate]: the LD50 was more than 10000 mg/kg.

`Clc1ccc(SCCSC(Cn2ccnc2)c2ccc(Cl)cc2Cl)nc1` (stereo not drawn) [Example 29, 1-{β-[(5'-chloropyridyl-2'-thio-2-ethylthio)-2,4-dichlorophenethyl]}-imidazole] registered an LD50 of more than 2000 mg/kg.
